Patent US9701667B2, “Coumarin-based fluorogenic agents and uses thereof for specific protein labelling” (UNIVERSITY OF OTTAWA, priority 2014, dated 2017)
Entries after “also recorded” stand apart in the source; their conditions may differ.

Experiments:
MBP-dC10α [1] = assay: Time-dependent fluorescence increase on reaction with test protein; format: biochemical; details: for selectivity of labelling target protein over GSH: MBP-dC10 versus GSH; for reactivity with test protein MBP-dC10: 25 μM fluorogen, 25 μM MBP-dC10, 50 mM HEPES pH 7.4
Procedure: (§1) Reactivity was tested through the time-dependent fluorescence increase at 37° C. using Synergy H4 Hybrid Multi-Mode Microplate Reader with excitation and emission monochromators set to 9 nm bandpass. All reactions were prepared in 50 mM HEPES buffer (pH 7.4) with 5% DMSO. Solutions of MBP-dC10α or GSH were prepared in 96-well plates and labelling reagent (YCx) in DMSO was added immediately before recording. The final concentration of labelling reagent was 25 μM, the final concentration of MBP-dC10α was 25 μM and the final concentration of GSH was 50 μM or 1 mM in 50 mM HEPES buffer (pH 7.4) with 5% DMSO. Samples were excited at 440 nm and fluorescence intensity was followed at 485 nm as a function of time.

[2] = Time-dependent fluorescence increase on reaction with GSH; details: for reaction with GSH: 50 mM HEPES pH 7.4; for reaction with low concentration of GSH / reaction with high concentration (large excess) of GSH: 25 μM fluorogen; for reaction with low concentration of GSH: 50 μM GSH; for reaction with high concentration (large excess) of GSH: 1 mM GSH
Procedure: as §1

[3] = Kinetic studies of consecutive thiol addition reactions with model thiol MPA; details: for first thiol addition faster than second addition: ratio of first to second MPA addition rate; for k1 / k2: second order rate constant, 50 mM HEPES pH 7.4, 5% DMSO, 37° C.; for k1: first thiol addition of MPA; for k2: second thiol addition of MPA
Procedure: Kinetic studies were then performed for the thiol addition reactions of YC5 and YC9 with 3-mercaptopropionic acid (MPA) as a water-soluble, nucleophilic model thiol (Scheme 13). Reactions were run in the presence of a large excess of MPA, making them pseudo-first order in fluorogen. The resulting time-dependent increase in fluorescence was fit to a model for consecutive first order reactions, providing pseudo-first order rate constants for both addition steps. The concentration of MPA was then varied, allowing second order rate constants to be calculated for both steps.
where I is fluorescence intensity, and the fluorescence intensity is linearly proportional to the concentration, since the concentration of fluorogen used here is within the linear range. So IA=a*[A]; IB=b*[B]; IP=p*[P]; [A]0=2.5*10^−5. With this formula, there will be 5 parameters, but based on the nature of the reaction and the fluorescent properties of the compounds, the 5 parameters can be restrained as: p>b>a>0; k1>k2>0. Finally, the formula and the conditions were applied in Origin 6.0 to fit the curves by non-linear regression, yielding values for the kobs for each step.
Kinetic experiments were carried out at 37° C. using Synergy H4 Hybrid Multi-Mode Microplate Reader with excitation and emission monochromators 9 nm bandpass. Solutions with different MPA concentrations were prepared in 96-well plate and labelling reagent (YC5 or YC9) in DMSO was added immediately before recording. The final concentration of labelling reagent was 25 μM and the final concentrations of MPA were 0.875 mM, 1 mM, 1.125 mM or 1.25 mM in 50 mM HEPES buffer (pH 7.4) with 5% DMSO (FIG. 12). Samples were excited at 440 nm and fluorescence intensity was followed at 485 nm as a function of time. All the time-dependent fluorescence increase curves were fitted by non-linear regression according to the formula from the last section using Origin to get kobs. kobs was plotted against MPA concentrations to obtain a second order rate constant.

MBP-dC10α [4] = assay: Fluorescence properties and fluorescence enhancement (FE) before/after labelling of model target protein; format: biochemical; details: for Fluorescence enhancement (FE): after labelling with MBP-dC10, λex = 440 nm, λem = 485 nm, 50 mM HEPES pH 7.4; for fluorescence after the labelling reaction: after reaction with MBP-dC10α; for background (intrinsic) fluorescence before labelling / quenching: fluorogen without target protein
Procedure: For experiments described herein, maltose-binding protein (MBP) was chosen as a highly-soluble test protein and the dC10α tag was fused to its C-terminus (MBP-dC10α) as described previously (Guy, J. et al., Mol. Biosyst. 2010, 6, 976-987).
Emission spectra and fluorescence intensity measurements were recorded at 37° C. with a Synergy H4 Hybrid Multi-Mode Microplate Reader with excitation and emission monochromators set at 9 nm bandpass. The mixture of 100 μM solution of fluorogen (YCx) and 100 μM MBP-dC10 in 50 mM HEPES buffer (pH 7.4) with 5% DMSO was incubated at 37° C. in the dark for 12 hours, after which the fluorescence emission spectrum of a dilution (25 μM final) in 50 mM HEPES buffer with 5% DMSO was recorded. The emission spectra of the corresponding labelling reagent in same solution without MBP-dC10α were also recorded. The ratio of fluorescence intensity at maximum emission gave the fluorescence enhancement (FE) ratio.

cmyc-mNeptune-dC10α = assay: Intracellular labelling of test protein in transfected cells (YC9); format: cell-based, human
Description: The red fluorescent protein mNeptune was chosen as a target protein so that its intrinsic fluorescence would serve as a control for the transfection and expression of the target protein. The target sequence dC10α was cloned to its C-terminus and the cmyc epitope (which would ensure the protein was also at least partially directed to the nucleus) was cloned to its N-terminus. […] Furthermore, fluorescent labelling was most intense and nearly limited to cells (FIG. 11D) that expressed the target red fluorescent test protein (FIG. 11E).
HEK 293T cells were plated into 6-well plates equipped with 25 mm×25 mm coverslips and grown in DMEM supplemented with 10% FBS 16 h before transfection. Cells were transiently transfected with mNeptune-dC10α or pcDNA3.1 using lipofectamine 2000. Either 24 or 48 h after transfection, the cells were washed with complete DMEM and incubated with 25 μM YC9 in DMEM for 30 min at 37° C. The media with labelling reagent was removed and followed by 3 times washing over 3 h at 37° C. Cells were fixed after labelling for imaging on a Carl Zeiss Axiophot inverted microscope.

HEK293T cells = assay: MTT cytotoxicity assay; format: cell-based, human; details: 20 h incubation
Procedure: 3-(4,5-Dimethylthiazol-2-yl)-2,5-diphenyl tetrazolium bromide (MTT) is a yellow tetrazolium salt and can be reduced to formazan crystals, which are insoluble in aqueous solutions, by active mitochondria in living cells. The resulting intracellular purple formazan can be dissolved in Triton X100, and therefore quantified by measuring absorption of the solution.
Cells were seeded in a 96-well plate and incubated with 100 μL of culture medium with different amounts of the fluorogen YCx for 16 h. No fluorogen was added to the positive control and no cells were plated in the negative control. Portions of 25 μL of MTT solution (5 mg in 1 mL of Hanks' balanced salt solution) were added to the wells and the cells were further incubated at 37° C. for 4 h. Solubilization solutions (100 μL) were then added and incubated in 96-well plates at room temperature in the dark overnight. The absorption of each well was measured using a plate reader at a wavelength of 570 nm with 690 nm as a reference. Cell viability was calculated according to the following equation: Cell viability=(Awith fluorogen−Anegative control)/(Apositive control−Anegative control).

Aqueous solubility = format: physicochemical

SMILES	Fluorescence enhancement (FE) (MBP-dC10α [4])	background (intrinsic) fluorescence before labelling / quenching (MBP-dC10α [4])	reaction with low concentration of GSH [2]	reaction with high concentration (large excess) of GSH [2]	further results
CCN(CC)c1ccc2cc(C(=O)Nc3cc(N4C(=O)C=C(C)C4=O)cc(N4C(=O)C=C(C)C4=O)c3)c(=O)oc2c1 [YC5, N-(3,5-bis(3-methyl-2,5-dioxo-2,5-dihydro-1H-pyrrol-1-yl)phenyl)-7-(diethylamino)-2-oxo-2H-chromene-3-carboxamide]	69	negligible background fluorescence	–	–	selectivity of labelling target protein over GSH (MBP-dC10α [1]): reacted faster with MBP-dC10α than with GSH; reaction with GSH [2]: still appreciable; first thiol addition faster than second addition [3]: 7 times; k1 [3]: 1.208 ± 0.249 M⁻¹ s⁻¹; k2 [3]: 0.1571 ± 0.0510 M⁻¹ s⁻¹; fluorescence after the labelling reaction (MBP-dC10α [4]): strong fluorescence; also recorded: strongly fluorescent
CCN(CC)c1ccc2cc(C(=O)Nc3cc(N4C(=O)C=C(C)C4=O)cc(N4C(=O)C=C(OC)C4=O)c3)c(=O)oc2c1 [YC9, 7-(Diethylamino)-N-(3-(3-methoxy-2,5-dioxo-2,5-dihydro-1H-pyrrol-1-yl)-5-(3-methyl-2,5-dioxo-2,5-dihydro-1H-pyrrol-1-yl)phenyl)-2-oxo-2H-chromene-3-carboxamide]	62	negligible background fluorescence	did not react	showed some signal	melting point: 88.3 to 93.7 °C; reactivity with test protein MBP-dC10 (MBP-dC10α [1]): still rapid; reaction with GSH [2]: completely suppressed; selectivity of labelling dC10α-tagged target protein in living cells (cmyc-mNeptune-dC10α; HEK293 cells transfected with cmyc-mNeptune-dC10α, 25 μM YC9, 30 min): high selectivity; background fluorescence in mock-transfected cells (cmyc-mNeptune-dC10α; cells transfected with empty (mock) vector, 25 μM YC9): minimal background fluorescence; first thiol addition faster than second addition [3]: 63 times; k1 [3]: 2.480 ± 0.216 M⁻¹ s⁻¹; k2 [3]: 0.0388 ± 0.0133 M⁻¹ s⁻¹; fluorescence after the labelling reaction (MBP-dC10α [4]): strongly fluorescent
CCC1=CC(=O)N(c2cc(NC(=O)c3cc4ccc(N(CC)CC)cc4oc3=O)cc(N3C(=O)C=C(C)C3=O)c2)C1=O [YC15]	226	–	did not react	showed some signal	–
CCN(CC)c1ccc2cc(C(=O)Nc3cc(N4C(=O)C=C(C)C4=O)cc(N4C(=O)C=C(C(C)C)C4=O)c3)c(=O)oc2c1 [YC16]	228	–	did not react	showed some signal	–
CCOC1=CC(=O)N(c2cc(NC(=O)c3cc4ccc(N(CC)CC)cc4oc3=O)cc(N3C(=O)C=C(C)C3=O)c2)C1=O [YC17]	194	–	did not react	showed some signal	–
CCN(CC)c1ccc2cc(C(=O)Nc3cc(N4C(=O)C=C(C)C4=O)cc(N4C(=O)C=C(Br)C4=O)c3)c(=O)oc2c1 [YC18]	468	–	–	–	reactivity with test protein MBP-dC10 (MBP-dC10α [1]): much more reactive than other fluorogens; also recorded: labelled the protein most efficiently; selectivity of labelling target protein over GSH (MBP-dC10α [1]): did not show much difference; also recorded: not as selectively as other fluorogens
CCN(CC)c1ccc2cc(C(=O)Nc3cc(N4C(=O)C=C(C)C4=O)cc(N4C(=O)C=C(OC(C)C)C4=O)c3)c(=O)oc2c1 [YC19]	189	–	did not react	showed some signal	–
COC(=O)CCN(CCC(=O)OC)c1ccc2cc(C(=O)Nc3cc(N4C(=O)C=C(OC)C4=O)cc(N4C(=O)C=C(OC)C4=O)c3)c(=O)oc2c1 [YC21M, Dimethyl 3,3′-((3-((3,5-bis(3-methoxy-2,5-dioxo-2,5-dihydro-1H-pyrrol-1-yl)phenyl)carbamoyl)-2-oxo-2H-chromen-7-yl)azanediyl)dipropanoate]	–	–	–	–	cytotoxicity (cell viability, MTT) (HEK293T cells): neither showed any cytotoxicity up to 100 μM
COc1ccc2cc(C(=O)N3CCN(C(=O)c4cc(N5C(=O)C=C(C)C5=O)cc(N5C(=O)C=C(C)C5=O)c4)CC3)c(=O)oc2c1 [YC24, 1,1′-(5-(4-(7-methoxy-2-oxo-2H-chromene-3-carbonyl)piperazine-1-carbonyl)-1,3-phenylene)bis(3-methyl-1H-pyrrole-2,5-dione)]	–	quenched very efficiently	–	–	fluorescence after the labelling reaction (MBP-dC10α [4]): weak
CCN(CC)c1ccc2cc(C(=O)N3CCN(C(=O)c4cc(N5C(=O)C=C(C)C5=O)cc(N5C(=O)C=C(C)C5=O)c4)CC3)c(=O)oc2c1 [YC25, 1,1′-(5-(4-(7-(diethylamino)-2-oxo-2H-chromene-3-carbonyl)piperazine-1-carbonyl)-1,3-phenylene)bis(3-methyl-1H-pyrrole-2,5-dione)]	–	strong background fluorescence	–	–	–
COc1ccc2cc(C(=O)Nc3cc(N4C(=O)C=C(C)C4=O)cc(N4C(=O)C=C(C)C4=O)c3)c(=O)oc2c1 [YC26, N-(3,5-bis(3-methyl-2,5-dioxo-2,5-dihydro-1H-pyrrol-1-yl)phenyl)-7-methoxy-2-oxo-2H-chromene-3-carboxamide]	–	–	–	–	aqueous solubility (Aqueous solubility): poor aqueous solubility
